Data from patent US9938279B2, “Method for treating disease or condition susceptible to amelioration by AMPK activators and compounds of formula which are useful to activate AMP-activated protein kinase (AMPK)” (ENERGENESIS BIOMEDICAL CO., LTD, priority 2013, dated 2018).

Columns and labels:
muscle cell C2C12 = experiment: Glucose uptake in vitro (fluorescent glucose analog 2-NBDG); format: cell-based, mouse; conditions: 30 min treatment, mean±SEM of three experiments
Procedure: Effects of representative compounds on glucose uptake were analyzed in muscle cell C2C12 by using fluorescent glucose analog (2-NBDG, Molecular Probes). C2C12 were treated with selected novel AMPK activator for 30 min at 37° C. then exposed to 500 μM of fluorescent glucose analog. After 5 min incubation at room temperature, cells were washed three times with Kreb-Hepes buffered solution and fix in 70% alcohol. The fluorescence of glucose analog in cells was detected using a Fluorescence Microplate Reader System at 480-nm excitation and 530-nm emission wavelength.
Data are presented as the mean±SEM of three independent experiments.

AMPK [1] = experiment: AMPK activation assay (western blot phospho-AMPK Thr172) in 3T3-L1; format: cell-based, mouse; conditions: 3T3-L1 cells, 30 min treatment
Procedure, shortened: (§1)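 Mouse C2C12, mouse 3T3-L1 and human Hep G2 cells in high-glucose DMEM/10% FBS were treated with compounds for 30 min, 24 h after plating. Lysates were western-blotted for phospho-AMPK (Thr172) and total AMPK, ECL-detected, and bands quantified by densitometry.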

AMPK [2] = experiment: AMPK activation assay (western blot phospho-AMPK Thr172) in Hep G2; format: cell-based, human; conditions: Hep G2 cells, 30 min treatment
Procedure, shortened: as §1

AMPK [3] = experiment: AMPK activation assay (western blot phospho-AMPK Thr172) in C2C12; format: cell-based, mouse; conditions: C2C12 cells, 30 min treatment
Procedure, shortened: as §1

Row | Structure (SMILES) | Glucose uptake (% to control) (muscle cell C2C12; C2C12, 1200 microM) | AMPK activation (% to control) 3T3-L1 (AMPK [1]; 1200 microM) | AMPK activation (% to control) Hep G2 (AMPK [2]; 1200 microM) | AMPK activation (% to control) C2C12 (AMPK [3]; 1200 microM) | Glucose uptake (% to control) (muscle cell C2C12; C2C12, 1 microM) | Glucose uptake (% to control) (muscle cell C2C12; C2C12, 10 microM) | Glucose uptake (% to control) (muscle cell C2C12; C2C12, 100 microM) | Glucose uptake (% to control) (muscle cell C2C12; C2C12, 600 microM) | AMPK activation (% to control) 3T3-L1 (AMPK [1]; 1 microM) | AMPK activation (% to control) 3T3-L1 (AMPK [1]; 10 microM) | AMPK activation (% to control) 3T3-L1 (AMPK [1]; 100 microM) | AMPK activation (% to control) 3T3-L1 (AMPK [1]; 200 microM) | AMPK activation (% to control) Hep G2 (AMPK [2]; 1 microM) | AMPK activation (% to control) Hep G2 (AMPK [2]; 10 microM) | AMPK activation (% to control) Hep G2 (AMPK [2]; 100 microM) | AMPK activation (% to control) Hep G2 (AMPK [2]; 200 microM) | AMPK activation (% to control) C2C12 (AMPK [3]; 1 microM) | AMPK activation (% to control) C2C12 (AMPK [3]; 10 microM) | AMPK activation (% to control) C2C12 (AMPK [3]; 100 microM) | AMPK activation (% to control) C2C12 (AMPK [3]; 200 microM)
1 | NC(=O)c1ncn([C@@H]2O[C@H](CO)[C@@H](O)[C@H]2O)c1N [AICAR, 5-amino-1-β-D-ribofuranosyl-imidazole-4-carboxamide, reference compound] | 264 ± 19.2 % to control | 340 % to control | 319 % to control | 335 % to control |  |  |  |  |  |  |  |  |  |  |  |  |  |  |  | 
2 | Oc1nc(NC2CCCCC2)nc2nc[nH]c12 [2-cyclohexylamino-6-hydroxypurine] |  |  |  |  | 108 ± 2.1 % to control | 195 ± 11.9 % to control | 251 ± 16.2 % to control | 311 ± 10.7 % to control | 118 % to control | 172 % to control | 283 % to control | 375 % to control | 111 % to control | 137 % to control | 248 % to control | 351 % to control | 108 % to control | 118 % to control | 209 % to control | 321 % to control
3 | Oc1ncnc2nc[nH]c12 [6-hydroxypurine] |  |  |  |  | 109 ± 2.2 % to control | 242 ± 23.7 % to control | 289 ± 21.4 % to control | 318 ± 21.2 % to control | 118 % to control | 155 % to control | 198 % to control | 325 % to control | 114 % to control | 146 % to control | 165 % to control | 330 % to control | 120 % to control | 148 % to control | 233 % to control | 341 % to control
4 | Cc1c[nH]c(=O)[nH]c1=O [Thymine, thymine] |  |  |  |  | 110 ± 3.2 % to control | 167 ± 15.1 % to control | 215 ± 18.2 % to control | 283 ± 22.3 % to control | 109 % to control | 129 % to control | 235 % to control | 318 % to control | 110 % to control | 113 % to control | 218 % to control | 303 % to control | 117 % to control | 147 % to control | 266 % to control | 354 % to control
5 | Nc1nc(Cl)nc2nc[nH]c12 [Example 2-chloroadenine, 2-chloroadenine] |  |  |  |  |  |  |  |  | 118 % to control | 143 % to control | 271 % to control | 311 % to control | 116 % to control | 139 % to control | 220 % to control | 314 % to control | 110 % to control | 155 % to control | 284 % to control | 326 % to control
6 | O=c1[nH]cnc2nc[nH]c12 [Hypoxanthine] |  |  |  |  |  |  |  |  | 108 % to control | 128 % to control | 231 % to control | 335 % to control | 105 % to control | 124 % to control | 225 % to control | 341 % to control | 108 % to control | 121 % to control | 238 % to control | 309 % to control
7 | Nc1nc2nc[nH]c2c(=O)[nH]1 [Guanine] |  |  |  |  |  |  |  |  | 107 % to control | 121 % to control | 208 % to control | 312 % to control | 119 % to control | 144 % to control | 199 % to control | 335 % to control | 105 % to control | 117 % to control | 241 % to control | 304 % to control
8 | Nc1nc2[nH]cnc2c(=S)[nH]1 [Example 6-thioquanine] |  |  |  |  |  |  |  |  | 115 % to control | 132 % to control | 241 % to control | 289 % to control | 116 % to control | 133 % to control | 229 % to control | 311 % to control | 116 % to control | 141 % to control | 215 % to control | 301 % to control
9 | Sc1nc(S)c2[nH]cnc2n1 [2,6-dimercaptopurine] |  |  |  |  |  |  |  |  | 102 % to control | 98 % to control | 178 % to control | 260 % to control | 110 % to control | 133 % to control | 244 % to control | 366 % to control | 104 % to control | 117 % to control | 215 % to control | 298 % to control
